The source of these data is article PMC11232385, “Selective depletion of HBV-infected hepatocytes by class A capsid assembly modulators requires high levels of intrahepatic HBV core protein” (Antimicrobial Agents and Chemotherapy, 2024).

In data set [1] the test system is HBV. Also on record: method as in doi:10.1016/S0168-8278(20)32197-8. The settings on record: cited from earlier work.
A further data set relates to PHH. Nature of the data set: Cytotoxicity (alamarBlue) in HBV-infected PHH, 6 days of treatment. It is filed as cell-based, human. The method, then:
(§1) Cryopreserved PHHs isolated from multiple donors were purchased from Thermo Fisher Scientific (Waltham, MA), Bioreclamation IVT (Hicksville, NY), or Lonza (USA). PHH culturing conditions as previously described ([11]). Approximately 24 h after plating, PHH was infected with HepAD38-derived HBV virions ([36]) (genotype D virus) at 500 viral genome equivalents per cell in a maintenance medium supplemented with 4% PEG 8000 (Promega, Madison, WI; V3011). The infection was allowed to proceed for 20–24 h before removing remaining extracellular virions by washing with a maintenance medium three times.
(§2) Antiviral activity or cytotoxicity of each test compound was determined from, extracellular HBV DNA, HBeAg, HBsAg, and alamarBlue data by comparing compound-treated PHH to DMSO-treated PHH to generate a percent of DMSO control value (% DMSO control). The % DMSO control was calculated by the following equation: % DMSO Control = 100× (XC/XD) where XC is the signal from the compound-treated PHH, and XD is the signal from the DMSO-treated PHH. The percentage of DMSO control for HBV DNA, HBeAg, HBsAg, and alamarBlue was plotted vs the log of each compound concentration in GraphPad Prism (version 6; GraphPad Software, La Jolla, CA) to generate dose-response curves. […] Error bars represent SD. Statistical analyses were performed by two-way analysis of variance (ANOVA) and Pearson’s correlation tests.

A further data set has as its system HBV cccDNA. The settings on record: cited from earlier work.
The conditions of data set [2]: uPA-SCID mouse, 100 mg-eq/kg oral QD.
The next data set concerns HBV genotype D. Nature of the data set: Antiviral activity in HBV-infected PHH, drugs added day 3 post infection, 6 days of treatment. It is filed as cell-based, Hepatitis B virus. As to the method:
as §1
Extracellular HBsAg and HBeAg were detected in culture media by an electrochemiluminescence assay (Meso Scale Discovery [MSD]) as previously described ([37]).
Extracellular HBV DNA from PHH supernatants was purified using the Qiagen DNeasy 96 kit (69582) following the protocol recommended by the manufacturer. Quantification of HBV DNA by qPCR amplification of the HBV X region of the genome was performed as previously reported ([11]).
as §2

The test system of a further data set is AAV-HBV (HBV genotype D). Nature of the data set: Efficacy study in the AAV-HBV mouse model. The settings on record: for serum ALT: during 56 days of treatment; for serum HBV DNA reduction / reduction of HBc-positive cells in the liver / HBeAg reduction / HBsAg reduction: end of treatment (day 56); for serum HBV DNA reduction: oral QD; for reduction of HBc-positive cells in the liver: immunofluorescence; for HBeAg reduction / HBsAg reduction: relative to vehicle. The class given is in vivo, C57BL/6 mice. The method, then: Recombinant AAV (serotype 8) carrying the 1.3 copy HBV genome (genotype D; serotype ayw) and empty AAV were provided by Beijing FivePlus Molecular Medicine Institute (Beijing, China). C57BL/6 mice were provided by Shanghai Lingchang Bio Tech Co. Ltd (Shanghai, China). Studies were conducted by Covance Pharmaceutical R&D (Shanghai, China). All procedures implemented during the studies followed local animal welfare legislation, Covance global policies and procedures, and the Guide for the Care and Use of Laboratory Animals.
C57BL/6 mice (male; 4–5 weeks of age) were injected with 200 µL PBS containing 1 × 10^11 vge recombinant virus per mouse through the tail vein. Twenty-eight days after AAV-HBV injection, the mice were bled retro-orbitally to monitor HBsAg and HBV genomic DNA in serum. Based on the HBsAg, HBeAg, and HBV DNA levels and body weight, AAV-HBV-infected mice were selected and randomized into groups (six animals per group) for compound and/or siRNA treatment. […] LNP empty and LNP siRNA 3 mg/kg were injected intravenously at 4 mL/kg on dosing days 0, 14, 28, 42, and 56. […] Serum HBsAg, HBeAg, and HBV DNA were measured twice weekly. ALT was measured once weekly throughout the study. Serum HBsAg and HBeAg were determined by […] i2000 (Abbott Laboratories, Lake Bluff, IL, USA). Serum HBV-DNA was analyzed by ABI7500 (Applied Biosystems, Foster City, CA, USA) and a detection kit (Sansure Biotech Inc., Changsha, Hunan, China). Serum ALT was determined using Roche Cobas 6000 Chemistry Analyzer (Roche Diagnostics, Mannheim, Germany) and supporting reagents.
(§3) Dewaxing and unmasking of antigens were performed on a Bond RX autostainer (Leica Biosystem), and subsequent assay modified for a single round of staining was performed using the Opal technology workflow (Akoya Biosciences), as described previously ([39]).

The subject of a further data set is HBV genotype C. The class given is in vivo, uPA-SCID mice. The settings on record: uPA-SCID mouse; for mean decrease of serum HBV DNA: compared to the vehicle, 84 days oral QD; for HBsAg decline: day 84 vs day 0. As to the method:
General health observations including weight were monitored weekly. All animal protocols were performed in accordance with the Guide for the Care and Use of Laboratory Animals and approved by the Animal Welfare Committee of Phoenix Bio Co., Ltd. All mice were housed individually and maintained in accordance with the Animal Ethics Committee of PhoenixBio (resolution #2214).
HBV-infected mice were randomized into four different treatment groups based on body weight, blood human albumin (h-Alb), and serum HBV DNA concentrations. All mice had blood h-Alb levels above 12 mg/mL and serum HBV DNA levels above 6.8 × 10^8 copies/mL. […] Mice were followed for an additional 28 days following cessation of treatment at day 84. Mouse serum was monitored weekly for serum HBV DNA and HBV antigens and biweekly for human (h) ALT1. Serum HBsAg and HBeAg concentrations were determined by SRL, Inc. (Tokyo, Japan) based on Chemiluminescent Enzyme Immuno Assay. HBV DNA concentration was performed using the TaqMan Fast Advanced Master Mix (Applied Biosystems, Thermo Fisher Scientific Inc.) and Applied Biosystems 7500 Real-Time PCR System (Applied Biosystems). Serum h-ALT1 concentration was determined by the Institute of Immunology Co., Ltd. (Tokyo, Japan) based on Enzyme-Linked ImmunoSorbent Assay.
as §3

For data set [3] the following is noted: AAV-HBV mouse, 100 mg-eq/kg oral QD.
Data set [4] relates to HBV. More on the design: method as in doi:10.1016/S0168-8278(22)00964-3, doi:10.1016/S0168-8278(22)02029-3. The settings on record: treatment-naïve and NA-suppressed patients, with an NA; cited from earlier work.

Where two headings read alike, the source gives them in different places. Where only a bound is given, the exact number is not on record here.

For the molecule `CCOC(=O)C1=C(CN2CCOCC2)NC(c2nccs2)=NC1c1ccc(F)cc1Br` (stereo not shown) [GLS4], the HBsAg reduction in the data set with HBV [1] (treatment-naïve HBeAg-positive patients) was 0.4 log10 IU/mL. Besides, the HBsAg effect result in the data set on HBV [1] (virally suppressed patients) was “no effect”.
In general, CC50 refers to the concentration giving 50% cytotoxicity. Low readings indicate greater toxicity to the cells, high ones lower toxicity to the cells. In general, EC50 refers to the midpoint of the concentration-response curve. Take `CNC(=O)C1(NC(=O)C(=O)c2c(C)c(C(=O)Nc3ccc(F)c(F)c3)n3c2CCC3)CC(F)(F)C1` [GS-SBA-1P]: the CC50 in the data set on PHH was above 2 µM. Moreover, in the data set with HBV cccDNA, the “concentration blocking cccDNA establishment over the HBV DNA plasma-adjusted EC50” value is reported as “six-fold”. Further, in [2], the “plasma exposures over the mouse plasma-adjusted EC50 of HBV DNA production” value was “greater than 76 fold”. In the data set on HBV genotype D (extracellular HBV DNA, mean ± SD, read-out: Viral DNA EC50), the EC50 was found to be 0.012 ± 0.0012 µM. Also, in the data set with HBV genotype D (read-out: HBeAg EC50), the EC50 was above 2 µM. In addition, the EC50 in the data set on HBV genotype D (read-out: HBsAg EC50) is above 2 µM. For the same molecule, in the data set on AAV-HBV (HBV genotype D), the “serum ALT” value was “no changes”, the “serum HBV DNA reduction” value was determined as 3.7 log10, the “reduction of HBc-positive cells in the liver” value (“reduction … in the liver” for short) is recorded as “minimal reduction” and the HBeAg reduction entry is “no changes”. Also, the HBsAg reduction result in the data set on AAV-HBV (HBV genotype D) is on record as “no changes”. Also, in the data set with HBV genotype C, the “mean decrease of serum HBV DNA” value is on record as 5.0 log10 and the HBsAg decline amounted to 0.4 log10. In the data set on HBV genotype C (immunofluorescence, compared to vehicle or TAF-treated animals), the “reduction … in the liver” value was determined as 30%. In addition, in data set [3], the “plasma and liver concentrations over the paEC50” value is “approximately 76 fold”.
Regarding `CCOC(=O)C1=C(CN2CCN3C(=O)N(CC(C)(C)C(=O)O)C[C@@H]3C2)N=C(c2nccs2)N[C@H]1c1cccc(F)c1C` [RG7907], the HBsAg reduction entry in the data set on HBV [4] is given as “no significant reduction of HBsAg”.
With `CC(C)OC(=O)[C@H](C)N[P@](=O)(CO[C@H](C)Cn1cnc2c(N)ncnc21)Oc1ccccc1` [TAF, tenofovir alafenamide], in the data set on AAV-HBV (HBV genotype D), the “serum ALT” value is “no changes”, the “serum HBV DNA reduction” value was determined as 2.5 log10, the “reduction … in the liver” value is reported as “no change” and the HBeAg reduction result was “no changes”. Besides, in the data set with AAV-HBV (HBV genotype D), the HBsAg reduction result was “no changes”. For the same molecule, in the data set on HBV genotype C, the “mean decrease of serum HBV DNA” value amounted to 3.6 log10 and the HBsAg decline was 0.35 log10.
